This is an account of results in paper PMC3368261, “Substituted aminopyrimidine protein kinase B (PknB) inhibitors show activity against Mycobacterium tuberculosis” (Bioorganic & Medicinal Chemistry Letters, 2012).

≈ marks a conversion by molar mass, not a printed value. Where two headings read alike, the source gives them in different places. A value given as a limit tells only on which side of the number the result lay.

One data set concerns the target PknB (Mycobacterium tuberculosis, UniProt P9WI81). Put plainly: PknB enzyme inhibition, in vitro phosphorylation of the substrate GarA. In kind it is biochemical.
In the next data set the test system is M. tuberculosis. Put plainly: Alamar blue cellular assay against M. tuberculosis (MIC). The settings on record: Mycobacterium tuberculosis. The format is cell-based.
The next data set can be described thus: physchem. The format is physicochemical.
The subject of data set [1] is 76-member human kinase panel. The format is biochemical. The settings on record: 10 μM inhibitor concentration, 76 kinases.
Setting [2] is: assay conditions described in Ref. [8] (Table 5: Ref. [10]), read-out: PknB IC50.

PknB, sequence (P9WI81 whole entry): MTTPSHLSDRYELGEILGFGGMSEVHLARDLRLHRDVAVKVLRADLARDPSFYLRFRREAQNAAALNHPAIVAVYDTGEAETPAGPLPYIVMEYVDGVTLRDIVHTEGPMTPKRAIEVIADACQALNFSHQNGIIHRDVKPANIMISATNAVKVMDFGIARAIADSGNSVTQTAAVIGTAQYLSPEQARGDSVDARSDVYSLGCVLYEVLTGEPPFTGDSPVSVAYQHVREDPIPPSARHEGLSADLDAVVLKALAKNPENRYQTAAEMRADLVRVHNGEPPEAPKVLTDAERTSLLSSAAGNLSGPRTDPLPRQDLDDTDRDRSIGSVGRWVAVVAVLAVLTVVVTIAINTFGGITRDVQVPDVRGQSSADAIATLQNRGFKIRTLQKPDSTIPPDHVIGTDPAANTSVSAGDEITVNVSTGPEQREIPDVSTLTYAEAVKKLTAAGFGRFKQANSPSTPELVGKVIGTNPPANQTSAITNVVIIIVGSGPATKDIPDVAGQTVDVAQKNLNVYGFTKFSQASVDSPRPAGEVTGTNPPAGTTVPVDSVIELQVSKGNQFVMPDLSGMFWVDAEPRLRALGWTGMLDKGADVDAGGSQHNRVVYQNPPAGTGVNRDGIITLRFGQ

As to `CN(C)CCNc1cc(Nc2cc(C3CC3)[nH]n2)nc(-c2ccccc2)n1` [Compound 11a], the IC50 on PknB (setting [2]) is 88 nM. In addition, the MIC against M. tuberculosis was 125 µM (≈ 45.4 µg/mL). In addition, in “physchem”, the logD turned out to be 3.7.

As to `CN1CCC(CNc2cc(Nc3cc(C4CC4)[nH]n3)nc(-c3ccccc3)n2)CC1` [Compound 11c], the IC50 at PknB (read-out: PknB IC50) amounted to 55 nM. This compound came in with an MIC against M. tuberculosis of 31 µM (≈ 12.5 µg/mL). Besides, the logD in “physchem” is 2.3.

As to `c1cncc(-c2nccc(Nc3cc(C4CC4)[nH]n3)n2)c1` [Compound 8g], the IC50 at PknB (setting [2]) was 202 nM. In the data set on M. tuberculosis, this compound showed an MIC of 125 µM (≈ 34.8 µg/mL).

Take `CN1CCC(CNc2cc(Nc3cc(C4CC4)[nH]n3)nc(-c3cccc(C#N)c3)n2)CC1` [Compound 15c]: on PknB, the “gain in PknB enzyme affinity” value is “approximately twofold”. Besides, the IC50 at PknB (setting [2]) is 23 nM. Further, in the data set with M. tuberculosis, 31 µM (≈ 13.3 µg/mL) was the least that counted as inhibitory (MIC).

As to `c1ccc(CNc2nccc(Nc3cc(C4CC4)[nH]n3)n2)cc1` [Compound 8j], at PknB (setting [2]), the IC50 was determined as 715 nM. The compound also gave an MIC with M. tuberculosis of 125 µM (≈ 38.3 µg/mL).

For the compound `Fc1ccc(-c2nccc(Nc3cc(C4CC4)[nH]n3)n2)cc1` [Compound 8a], the IC50 on PknB (setting [2]) worked out at 375 nM. Moreover, the MIC in the data set on M. tuberculosis was > 500 µM.

On to `Cc1cc(Nc2nc(-c3ccncc3)nc3ccccc23)n[nH]1` [Compound 1], for which the IC50 at PknB (high throughput screen, GarA phosphorylation, read-out: PknB inhibition (HTS hit)) came out at 1350 nM.

For `Clc1ccccc1CCNc1nccc(Nc2cc(C3CC3)[nH]n2)n1` [Compound 8l], the IC50 at PknB (setting [2]) was found to be 64 nM. Besides, in the data set on M. tuberculosis, the lowest concentration to inhibit growth (MIC) was 125 µM (≈ 44.4 µg/mL).

For `CN(C)[C@@H]1CCN(c2cc(Nc3cc(C4CC4)[nH]n3)nc(-c3cccc(C#N)c3)n2)C1` [Compound 15a], the IC50 at PknB (setting [2]) is 56 nM. Also, it took 63 µM (≈ 26.1 µg/mL) to inhibit growth against M. tuberculosis (MIC).

In the case of `CS(=O)(=O)c1cccc(-c2nccc(Nc3cc(C4CC4)[nH]n3)n2)c1` [Compound 8d], the IC50 at PknB (setting [2]) was 86 nM. In addition, inhibition of growth against M. tuberculosis (MIC) required 63 µM (≈ 22.4 µg/mL).

Consider `CN1CCN(c2cc(Nc3cc(C4CC4)[nH]n3)nc(-c3ccccc3)n2)CC1` [Compound 11b], for which the IC50 at PknB (setting [2]) stood at 121 nM. Besides, the MIC against M. tuberculosis stood at 63 µM (≈ 23.7 µg/mL). This compound also had a logD in the data set “physchem” of 3.6.

For the compound `c1ccc2c(Nc3cc(C4CC4)[nH]n3)nc(-c3ccncc3)nc2c1` [Compound 5a], the “improvement in PknB binding affinity” value on PknB is on record as “fourfold improvement in binding affinity”. Further, the IC50 on PknB (read-out: PknB IC50) came out at 322 nM.

As for `CN(C)CCNc1cc(Nc2cc(C3CC3)[nH]n2)nc(-c2cccc(C#N)c2)n1` [Compound 15b], the “gain in PknB enzyme affinity” value at PknB is “approximately twofold”. For the same compound, on PknB (setting [2]), the IC50 came to 39 nM. The compound further showed an MIC against M. tuberculosis of 63 µM (≈ 24.5 µg/mL).

Consider `c1cc(Nc2cc(C3CC3)[nH]n2)nc(NC2CCCCC2)n1` [Compound 8h], for which the IC50 at PknB (setting [2]) is 84 nM. For the same compound, 63 µM (≈ 18.8 µg/mL) was the least that counted as inhibitory in the data set on M. tuberculosis (MIC).

As for `c1cc(Nc2cc(C3CC3)[nH]n2)nc(NC2CCCC2)n1` [Compound 8n], the IC50 at PknB (setting [2]) was 115 nM. In addition, in the data set on M. tuberculosis, it took 63 µM (≈ 17.9 µg/mL) to inhibit growth (MIC).

On to `CN(C)[C@@H]1CCN(c2cc(Nc3cc(C4CC4)[nH]n3)nc(-c3ccccc3)n2)C1` [Compound 11e], for which the IC50 at PknB (setting [2]) worked out at 53 nM. Also, in the data set with M. tuberculosis, the minimum inhibitory concentration (MIC) was 16 µM (≈ 6.23 µg/mL). The same compound gave a logD in the data set “physchem” of 3.8.

Take `c1cc(Nc2cc(C3CC3)[nH]n2)nc(NCC2CC2)n1` [Compound 8m]: the IC50 at PknB (read-out: PknB IC50) turned out to be 217 nM. In the data set on M. tuberculosis, this compound gave an MIC of 250 µM (≈ 67.6 µg/mL).

In the case of `N#Cc1cccc(-c2nccc(Nc3cc(C4CC4)[nH]n3)n2)c1` [Compound 8f], the IC50 on PknB (read-out: PknB IC50) turned out to be 87 nM. This compound also displayed an MIC against M. tuberculosis of 125 µM (≈ 37.8 µg/mL).

As for `CN1CCC(CNc2cc(Nc3cc(C4CC4)[nH]n3)nc(-c3cccc(S(C)(=O)=O)c3)n2)CC1` [Compound 15d], the IC50 on PknB (read-out: PknB IC50) was found to be 40 nM. The compound further showed an MIC in the data set with M. tuberculosis of 63 µM (≈ 30.3 µg/mL).

In the case of `c1ccc(-c2nc(Nc3cc(C4CC4)[nH]n3)cc(OCCN3CCCC3)n2)cc1` [Compound 11f], on PknB (setting [2]), the IC50 was 56 nM. The compound also registered an MIC in the data set on M. tuberculosis of 31 µM (≈ 12.1 µg/mL). In “physchem”, this compound gave a pH-dependent lipophilicity (logD) of 3.4.

With `Fc1ccc(-c2nc(Nc3cc[nH]n3)c3ccccc3n2)cc1` [Compound 5b], the IC50 at PknB (setting [2]) was 453 nM.

Regarding `CN(C)[C@@H]1CCN(c2cc(Nc3ccccn3)nc(-c3cccc(C#N)c3)n2)C1` [Compound 16a], the IC50 at PknB (setting [2]) is 1990 nM. In addition, 31 µM (≈ 11.9 µg/mL) was the least that counted as inhibitory in the data set with M. tuberculosis (MIC).

Turning to `CS(=O)(=O)NCc1ccc(-c2nccc(Nc3cc(C4CC4)[nH]n3)n2)cc1` [Compound 8e], on PknB (setting [2]), the IC50 is 241 nM. In the data set with M. tuberculosis, this compound displayed an MIC of 63 µM (≈ 24.2 µg/mL).

With `c1ccc(-c2nc(Nc3cc(C4CC4)[nH]n3)c3ccccc3n2)cc1` [Compound 5e], the IC50 at PknB (setting [2]) came out at 440 nM.

On to `NC(=O)c1cccc(-c2nccc(Nc3cc(C4CC4)[nH]n3)n2)c1` [Compound 8b], for which, at PknB (setting [2]), the IC50 is 384 nM. Further, in the data set with M. tuberculosis, the lowest concentration to inhibit growth (MIC) was 63 µM (≈ 20.2 µg/mL).

In the case of `CC(C)CCNc1nccc(Nc2cc(C3CC3)[nH]n2)n1` [Compound 8i], the IC50 at PknB (setting [2]) is 354 nM. This compound registered an MIC in the data set on M. tuberculosis of 63 µM (≈ 18 µg/mL).

Turning to `Cc1cc(Nc2nc(-c3ccc(F)cc3)nc3ccccc23)n[nH]1` [Compound 5c], the IC50 on PknB (setting [2]) turned out to be 1160 nM.

For the compound `c1ccc2c(Nc3cc(C4CC4)[nH]n3)nc(NC3CCCCC3)nc2c1` [Compound 5f], the IC50 on PknB (read-out: PknB IC50) was 107 nM.

Turning to `CN1CCC(Nc2cc(Nc3cc(C4CC4)[nH]n3)nc(-c3ccccc3)n2)CC1` [Compound 11d], the IC50 on PknB (setting [2]) is 73 nM. In the data set on M. tuberculosis, this compound showed an MIC of 31 µM (≈ 12.1 µg/mL). Also, in the data set “physchem”, the log distribution coefficient (logD) is 2.3.

`CS(=O)(=O)Nc1cccc(-c2nccc(Nc3cc(C4CC4)[nH]n3)n2)c1` [Compound 8c]: at PknB (setting [2]), the IC50 was found to be 393 nM. In the data set on M. tuberculosis, this compound yielded an MIC of 31 µM (≈ 11.5 µg/mL).

In the case of `Fc1cccc(CCNc2nccc(Nc3cc(C4CC4)[nH]n3)n2)c1` [Compound 8k], the IC50 at PknB (read-out: PknB IC50) was found to be 74 nM. Further, in the data set on M. tuberculosis, the MIC was 63 µM (≈ 21.3 µg/mL).

For the compound `CN(C)[C@@H]1CCN(c2cc(Nc3cc(Cl)ccn3)nc(-c3ccccc3)n2)C1` [Compound 16c], the IC50 on PknB (setting [2]) is 176 nM. The compound further registered an MIC against M. tuberculosis of 8 µM (≈ 3.16 µg/mL). In data set [1], the “kinase selectivity against human kinase panel” value is “improvement in selectivity relative to 11e”.

Take `c1ccc2c(Nc3cc(C4CC4)[nH]n3)nc(NCC3CC3)nc2c1` [Compound 5g]: at PknB (setting [2]), the IC50 was determined as 428 nM.

In the case of `CN(C)[C@@H]1CCN(c2cc(Nc3cc(C(F)(F)F)ccn3)nc(-c3cccc(C#N)c3)n2)C1` [Compound 16d], the IC50 at PknB (read-out: PknB IC50) worked out at 40 nM. In the data set with M. tuberculosis, this compound came in with an MIC of 16 µM (≈ 7.26 µg/mL).

`COc1ccnc(Nc2cc(N3CC[C@@H](N(C)C)C3)nc(-c3ccccc3)n2)c1` [Compound 16b]: the IC50 at PknB (setting [2]) was found to be 1130 nM. The minimal inhibitory concentration (MIC) with M. tuberculosis amounted to 31 µM (≈ 12.1 µg/mL).

Consider `Fc1ccc(-c2nc(Nc3cc(C4CC4)[nH]n3)c3ccccc3n2)cc1` [Compound 5d], for which the IC50 on PknB (setting [2]) stood at 223 nM.
